Experimental data published in patent US7618956B2, “Reduction of hair growth” (The Gillette Company, priority 2005, dated 2009).

How the values were obtained:
[1] = tested on: Human hair follicles in growth phase (anagen); experiment: Human hair follicle growth assay; type: cell-based; conditions: for Hair follicle length increase (mm) Treated: day 0 to day 7; for % Reduction of human hair follicle growth / Growth of follicle (mm) Treated: Table III
Protocol: Human Hair Follicle Growth Assay:
Human hair follicles in growth phase (anagen) were isolated from face-lift tissue (obtained from plastic surgeons) under dissecting scope using a scalpel and watchmakers forceps. The skin was sliced into thin strips exposing 2-3 rows of follicles that could readily be dissected. Follicles were placed into 0.5 ml William's E medium (Life Technologies, Gaithersburg, Md.) supplemented with 2 mM L-glutamine, 10 μg/ml insulin, 10 ng/ml hydrocortisone, 100 units of penicillin, 0.1 mg/ml streptomycin and 0.25 μg/ml amphotericin B. The follicles were incubated in 24-well plates (1 follicle/well) at 37° C. in an atmosphere of 5% CO2 and 95% air. Compounds are dissolved into dimethyl sulfoxide as 100-fold stock solution. The control hair follicles were treated with dimethyl sulfoxide without prostaglandin. The follicles were photographed in the 24-well plates under the dissecting scope at a power of 10×. Typically, image recordings were made on day 0 (day follicles were placed in culture), and again on day 7. The length of hair follicle was assessed using an image analysis software system. The growth of hair fiber was calculated by the subtracting the follicle length on day 0 from that determined on day 7.

[2] = tested on: hamster hair mass; experiment: Hamster hair mass assay; type: in vivo; conditions: vehicle 90% ethanol and 10% propylene glycol
Protocol: Hamster Hair Mass Assay: Hamster hair mass was determined using a method similar to that described in previous patent (US2004/0198821).

[3] = Homo sapiens, Table II, dose 100 μM, vs control

| Structure (SMILES) | inhibition at 100 µM [1, 3] [%] | Hair follicle length increase (mm) Treated ([1]; Table II, dose 100 μM) [mm] | % Reduction of human hair follicle growth ([1]; dose 50 μM) [%] | Growth of follicle (mm) Treated ([1]; dose 50 μM) [mm] | % Inhibition of hamster hair mass ([2]; dose 5% (w/v)) [%] | Hair mass (mg) Treated ([2]; dose 5% (w/v)) [mg] | % Reduction of human hair follicle growth ([1]; dose 10 μM) [%] | Growth of follicle (mm) Treated ([1]; dose 10 μM) [mm] | % Reduction of human hair follicle growth ([1]; dose 100 μM) [%] | Growth of follicle (mm) Treated ([1]; dose 100 μM) [mm] | other results |
| --- | --- | --- | --- | --- | --- | --- | --- | --- | --- | --- | --- |
| C[C@H](CCC(=O)O)[C@H]1CC[C@H]2[C@@H]3[C@H](O)C[C@@H]4C[C@H](O)CC[C@]4(C)[C@H]3CC[C@]12C [Chenodeoxycholic acid] | 95.3 ± 5.6 | 0.05 ± 0.06 | 91.6 ± 6.5 | 0.13 ± 0.10 | 76.4 ± 2.6 | 0.54 ± 0.08 |  |  |  |  | % Reduction of human hair follicle growth ([1]; dose 5 μM): 1.3 ± 18.7%; Growth of follicle (mm) Treated ([1]; dose 5 μM): 1.53 ± 0.29 mm; % Reduction of human hair follicle growth ([1]; dose 25 μM): 49.0 ± 17.4%; Growth of follicle (mm) Treated ([1]; dose 25 μM): 0.79 ± 0.27 mm |
| C[C@H](CCC(=O)O)[C@H]1CC[C@H]2[C@@H]3CC[C@@H]4C[C@H](O)CC[C@]4(C)[C@H]3C[C@H](O)[C@]12C [Deoxycholic acid] | 94.3 ± 4.7 | 0.06 ± 0.05 | 69.3 ± 13.6 | 0.54 ± 0.34 | 63.6 ± 6.0 | 0.92 ± 0.14 | 31.8 ± 18.1 | 1.20 ± 0.49 | 69.3 ± 13.6 | 0.54 ± 0.34 |  |
| CC(C)=CCCC(C)=CCCC(C)=CCO [Farnesol] | 95.4 ± 8 | 0.04 ± 0.07 |  |  |  |  |  |  |  |  |  |
| COC(=O)C=C(C)CCC=C(C)CCC1OC1(C)C (centres unmarked) [Juvenile hormone III, 7-Methyl-9-(3,3-dimethyloxivanyl)-3-methyl-2,6-nonadienoic acid methyl ester] |  | 0.21 ± 0.15 |  |  |  |  |  |  |  |  | % Inhibition of human hair follicle growth ([1]; Table II, dose 100 μM, vs control): 75.9 ± 17.2% |
| C[C@H](CCC(=O)O)[C@H]1CC[C@H]2[C@@H]3CC[C@@H]4C[C@H](O)CC[C@]4(C)[C@H]3CC[C@]12C [Lithocholic acid] |  |  |  |  |  |  | 64.5 ± 12.9 | 0.44 ± 0.16 |  |  | inhibition at 50 µM ([1]; Homo sapiens, Table II, dose 50 μM, vs control): 98.1 ± 1.9%; Hair follicle length increase (mm) Treated ([1]; Table II, dose 50 μM): 0.02 ± 0.02 mm; % Reduction of human hair follicle growth ([1]; dose 2 μM): 33.9 ± 11.3%; Growth of follicle (mm) Treated ([1]; dose 2 μM): 0.82 ± 0.14 mm; % Reduction of human hair follicle growth ([1]; dose 20 μM): 97.6 ± 4.8%; Growth of follicle (mm) Treated ([1]; dose 20 μM): 0.03 ± 0.06 mm; % Inhibition of hamster hair mass ([2]; dose 4% (w/v)): 46.4 ± 6.0%; Hair mass (mg) Treated ([2]; dose 4% (w/v)): 1.01 ± 0.12 mg |
| C[C@H](CCC(=O)O)[C@H]1CC[C@H]2[C@@H]3[C@@H](O)C[C@@H]4C[C@H](O)CC[C@]4(C)[C@H]3CC[C@]12C [Ursodeoxycholic acid] |  |  | 36.3 ± 13.6 | 1.12 ± 0.24 | 56.8 ± 3.8 | 1.02 ± 0.16 |  |  | 51.1 ± 11.4 | 0.86 ± 0.20 | inhibition at 200 µM ([1]; Homo sapiens, Table II, dose 200 μM, vs control): 81.3 ± 10.3%; Hair follicle length increase (mm) Treated ([1]; Table II, dose 200 μM): 0.20 ± 0.11 mm; % Reduction of human hair follicle growth ([1]; dose 150 μM): 65.3 ± 11.4%; Growth of follicle (mm) Treated ([1]; dose 150 μM): 0.61 ± 0.20 mm |
